According to US5958907A, “Pharmaceutical compositions and uses of inorganic pyrophosphates” (The University of Iowa Research Foundation, priority 1997, dated 1999):
Where two headings read alike, the source gives them in different places.

Assays:
CFTR [1] = conditions: cited from earlier work
[2] = tested on: purinergic receptors in the airway epithelium; conditions: in vitro; cited from earlier work
wild-type CFTR = molecular target: T1, wild-type CFTR (Homo sapiens, UniProt P13569); experiment: Single channel excised inside-out patch-clamp and burst analysis, wild-type CFTR; assay type: cell-based; conditions: for frequency of prolonged bursts compared with PPi / bursts of activity: PPi analogs at 5 mM; for bursts of activity: C127 cell patches with a single active channel
T1 construct: excised inside-out patches with ATP and PKA
T1 sequence (P13569 whole entry): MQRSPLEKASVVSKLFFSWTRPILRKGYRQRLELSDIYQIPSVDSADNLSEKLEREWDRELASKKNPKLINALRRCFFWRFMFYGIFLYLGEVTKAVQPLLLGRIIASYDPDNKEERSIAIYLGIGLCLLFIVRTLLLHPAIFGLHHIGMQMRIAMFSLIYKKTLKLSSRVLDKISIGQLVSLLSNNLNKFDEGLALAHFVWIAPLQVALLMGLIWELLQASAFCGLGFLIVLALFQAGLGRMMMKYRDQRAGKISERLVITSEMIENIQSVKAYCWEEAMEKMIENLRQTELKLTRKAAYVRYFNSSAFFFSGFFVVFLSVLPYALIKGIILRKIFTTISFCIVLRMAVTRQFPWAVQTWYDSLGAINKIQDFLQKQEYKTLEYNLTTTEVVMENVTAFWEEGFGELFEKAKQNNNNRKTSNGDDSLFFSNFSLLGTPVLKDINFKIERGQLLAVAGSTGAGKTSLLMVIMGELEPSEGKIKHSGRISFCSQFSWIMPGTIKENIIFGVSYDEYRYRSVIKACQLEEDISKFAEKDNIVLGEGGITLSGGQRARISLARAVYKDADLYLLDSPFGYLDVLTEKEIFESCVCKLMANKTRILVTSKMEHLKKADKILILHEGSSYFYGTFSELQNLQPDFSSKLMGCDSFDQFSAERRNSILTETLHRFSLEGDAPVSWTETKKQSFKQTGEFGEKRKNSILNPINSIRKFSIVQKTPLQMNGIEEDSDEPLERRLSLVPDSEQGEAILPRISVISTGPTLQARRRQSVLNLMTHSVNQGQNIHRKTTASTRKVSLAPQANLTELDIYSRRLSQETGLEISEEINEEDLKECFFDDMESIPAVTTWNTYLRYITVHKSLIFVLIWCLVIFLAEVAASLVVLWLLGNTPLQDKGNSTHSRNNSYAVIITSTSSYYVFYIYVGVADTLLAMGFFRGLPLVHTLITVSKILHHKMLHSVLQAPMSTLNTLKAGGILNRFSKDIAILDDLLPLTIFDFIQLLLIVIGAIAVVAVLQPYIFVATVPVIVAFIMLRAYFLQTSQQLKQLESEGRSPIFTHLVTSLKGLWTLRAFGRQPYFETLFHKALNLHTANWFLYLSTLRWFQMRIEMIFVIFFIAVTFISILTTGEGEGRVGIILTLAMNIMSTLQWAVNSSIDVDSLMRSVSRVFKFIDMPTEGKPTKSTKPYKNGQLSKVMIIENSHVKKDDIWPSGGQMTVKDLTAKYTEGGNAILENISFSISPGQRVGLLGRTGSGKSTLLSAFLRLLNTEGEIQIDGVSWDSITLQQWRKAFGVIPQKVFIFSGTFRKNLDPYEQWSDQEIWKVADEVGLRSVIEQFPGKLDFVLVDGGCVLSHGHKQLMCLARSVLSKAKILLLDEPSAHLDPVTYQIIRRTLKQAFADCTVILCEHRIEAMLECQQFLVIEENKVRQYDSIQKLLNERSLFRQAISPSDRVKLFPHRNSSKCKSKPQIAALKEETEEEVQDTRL

[3] = cited from earlier work
CFTR-ΔF508 = conditions: 5 mM PPi, 75 nM PKA, 0.3 mM ATP
[4] = molecular target: endogenous CFTR in the apical membrane of T-84 intestinal epithelial monolayers (Homo sapiens, UniProt P13569)
endogenous CFTR in the apical membrane of T-84 intestinal epithelial monolayers, sequence (P13569 whole entry): as above

CFTR Cl^- channel [5] = molecular target: T2, CFTR Cl^- channel (Homo sapiens, UniProt P13569); conditions: external addition of 5 mM PPi, n=4
T2 sequence (P13569 whole entry): as above
Experimental: To determine if inorganic pyrophosphate (PPi) would alter CFTR Cl^- channel activity, 5 mM PPi was added to an excised, inside-out membrane patch containing many CFTR channels which had been phosphorylated by PKA.

CFTR [6] = conditions: artificial lipid bilayers; cited from earlier work
CFTR Cl^- channel [7] = molecular target: T2, CFTR Cl^- channel
CFTR channel = CFTR channel (Homo sapiens, UniProt P13569); conditions: 5 mM PPi
CFTR channel, sequence (P13569 whole entry): as above
Experimental: Maximum likelihood analysis and kinetic modeling were performed as described (Winter, M. C. et al. (1994) Biophys. J. 66:1398-1403). Briefly, unfiltered single channel data were digitized on a microcomputer (Apple Macintosh, Apple Computer, Inc., Cupertine, Calif.) equipped with a multifunctional data acquisition board (NB-MIO-16) and LabVIEW 2 software (National Instruments, Austin, Tex.) at 5 kHz following filtering with an 8-pole Bessel filter (Frequency Devices Inc., Haverhill, Mass.) at a comer frequency of 1 kHz with subsequent digital filtering at 500 Hz. Previous work has shown that a linear three state model (C1 .rarw.→C2 .rarw.→O) best describes the kinetics of CFTR channel activity (Winter, M. C. et al. (1994) Biophys. J. 66:1398-1403). The Maple 5 symbolic algebra program (Waterloo Maple Software, Waterloo, Canada) was used to derive the open and closed time probability density functions for this model by solving the matrix equations in terms of the rate constants. The resulting equations were used in LabVIEW 2 to determine the set of rate constants which yielded the maximum likelihood for the open and closed times observed with different experimental interventions.
It has been previously shown that the activity of single phosphorylated CFTR channels can be described by a linear three state model (Winter, M. C. et al. (1994) Biophys. J. 66:1398-1403), and this model has been used to describe how ATP, ADP, and inorganic phosphate alter the rate constants which describe transitions between states (Carson, M. R. et al., 1994 Biophys. J (In Press); Winter, M. C. et al., 1994 Biophys. J. 66:1398-1403). […] The rate constants (β1, β2, α1, and α2) describe the rate of transition between each state.

human CFTR = conditions: [α-32P]8-N3ATP 30 αM, PPi in mM, 60 s UV irradiation; relative to control without PPi
Experimental: Photolabeling of membrane-associated CFTR was performed as previously described (Travis, S. M. et al. (1993) J. Biol. Chem. 268:15336-15339). […] Membranes were prepared by differential centrifugation and resuspended in 20 mM HEPES, pH 7.5, 50 mM NaCl, 3 mM MgSO4, with 2 μg/ml each of leupeptin, aprotinin, and pepstatin. Membrane-associated CFTR was phosphorylated prior to photolabeling by incubation with 100 nM PKA and 0.1 mM ATP in buffer containing 10 m MgCl2 and 50 mM 1,4-piperazine diethane sulfonic acid, pH 6.8 for 20 min at 30° C., then diluted in 12 volumes buffer containing 20 mM tris(hydroxymethyl)aminomethane, pH 7.5, 0.2 mM EGTA and 1 μM calyculin A. Membranes were collected by centrifugation and resuspended at a concentration of 2.5 mg protein/ml in the same buffer.
Photolabeling was performed by preincubating membranes (50 μg membrane protein/sample) on ice with [α-^32 P]8-N3ATP (30 αM, 6-12 Ci/mmol) and PPi (in mM). After 60 s UV irradiation, CFTR was solubilized and immunoprecipitated as described (Travis, S. M. et al. (1993) J. Biol. Chem. 268:15336-15339) using antibodies raised against the R domain (M13-1, 0.3 μg/sample) and against the C terminus (M1-4, 10 μg/sample). Immunocomplexes were analyzed by SDS-PAGE and incorporation of [α-^32 P]8-N3ATP was quantitated with an AMBIS radioanalytic imaging system (AMBIS Systems, Inc., San Diego, Calif.).

sodium channels = conditions: aerosolized, initial results; cited from earlier work

Nc1ncnc2c1ncn2[C@@H]1O[C@H](COP(=O)(O)OP(=O)(O)NP(=O)(O)O)[C@@H](O)[C@H]1O [AMP-PNP]
binding affinity relative to ATP (CFTR [1]): one twentieth

Nc1ncnc2c1ncn2[C@@H]1O[C@H](COP(=O)(O)OP(=O)(O)OP(=O)(O)O)[C@@H](O)[C@H]1O [ATP, Adenosine 5'-triphosphate]
chloride secretion [2]: can stimulate chloride secretion

O=P(O)(O)CP(=O)(O)O [PCP, Methylenediphosphonic acid]
frequency of prolonged bursts compared with PPi (wild-type CFTR; 75 nM PKA, 0.3 mM ATP): less frequent | bursts of activity (wild-type CFTR; 75 nM PKA, 0.3 mM ATP): prolonged bursts of activity | effects on Po and average burst duration (channel activity) (wild-type CFTR; nonhydrolyzable PPi analogs): did not achieve statistical significance | maintenance of calcaemia after initial treatment ([3]; daily oral administration of 1600 mg): calcaemia can be maintained | efficacy in tumor-induced bone disease ([3]; one slow infusion of 600 mg): shown efficacy

O=P([O-])([O-])OP(=O)([O-])[O-].[Na+].[Na+].[Na+].[Na+] [PPi, Sodium pyrophosphate]
Po (CFTR-ΔF508; before: 0.07±0.01, n=3): 0.21±0.022 | average burst duration (CFTR-ΔF508; before: 125±19 ms, n=3): 1023 ± 330 ms | increase of Po (CFTR-ΔF508; n=3): three-fold | increase of average burst duration (CFTR-ΔF508; n=3): eight-fold | stimulation of ΔF508 activity (CFTR-ΔF508; n=5): three-fold | apical membrane Cl- current ([4]; 1 or 5 mM PPi added to basolateral solution after cAMP, 1 mM ATP): further increase in current | apical membrane Cl- current ([4]; 1 or 5 mM PPi in the absence of cAMP): did not increase current above baseline levels | time for current to decrease to baseline levels after removal of cAMP ([4]; in the continued presence of PPi): ≤ 3 min | duration of the long closed states between bursts of activity (wild-type CFTR; 5 mM PPi, 0.3 mM ATP, 75 nM PKA): appeared to decrease the duration of the long closed states | open state probability (Po) (wild-type CFTR; 5 mM PPi, 0.3 mM ATP, 75 nM PKA, before: 0.39±0.021, n=8, p<0.001): 0.81±0.03 | mean burst duration (wild-type CFTR; 5 mM PPi, 0.3 mM ATP, 75 nM PKA, before: 175±6 ms, n=8, p<0.001): 1568 ± 219 ms | single channel current amplitude (wild-type CFTR; after addition of 5 mM PPi, 0.3 mM ATP, 75 nM PKA, before: 0.90±0.05, n=8, p=0.812): 0.91±0.02 pA | whole-cell currents (CFTR Cl^- channel [5]): did not alter currents | duration of bursts (CFTR [6]): prolonged the duration of bursts | Cl- current (CFTR Cl^- channel [7]; 5 mM PPi in the presence of 0.3 mM ATP, channels phosphorylated by PKA, cytosolic side): reversible increase | Cl- current (CFTR Cl^- channel [7]; PPi in the absence of ATP): did not stimulate current | EC50 (CFTR Cl^- channel [7]; read-out: apparent EC50 of stimulation of Cl- current, in the presence of ATP, PKA-phosphorylated channels): ~500 µM | decrease of rate constant α2 (CFTR channel; 0.3 mM ATP, 75 nM PKA): 37% | rate constant β1 (transition from long closed state C1 to bursting state) (CFTR channel; 0.3 mM ATP, 75 nM PKA): increased β1 | rate constant β2 (CFTR channel; 0.3 mM ATP, 75 nM PKA): did not alter β2 | rate constant α1 (rate of leaving the bursting mode) (CFTR channel; 0.3 mM ATP, 75 nM PKA, four single-channel patches): six-fold decrease | change in Po within a burst (CFTR channel; n=4, not significantly different): < 5% | 8-N3 ATP labeling of CFTR (human CFTR): concentration-dependent increase

O=c1ccn([C@@H]2O[C@H](COP(=O)(O)OP(=O)(O)OP(=O)(O)O)[C@@H](O)[C@H]2O)c(=O)[nH]1 [UTP]
chloride secretion [2]: can stimulate chloride secretion

N=C(N)NC(=O)c1nc(Cl)c(N)nc1N [amiloride]
rate of disease progression, as measured by lung function tests (sodium channels): slight change in the rate of disease progression | safety (sodium channels): safe

CC(O)(P(=O)(O)O)P(=O)(O)O [etidronate, 1-hydroxyethylidenebisphosphonic acid, reference compound]
frequency of prolonged bursts compared with PPi (wild-type CFTR; 75 nM PKA, 0.3 mM ATP): less frequent | bursts of activity (wild-type CFTR; 75 nM PKA, 0.3 mM ATP): prolonged bursts of activity | efficacy in tumor-induced bone disease ([3]; 500 mg/day for 3 days): shown efficacy
